According to US12714696B2, “Low dose fluralaner compositions for protection against parasitic invertebrate pest” (VIRBAC, priority 2019, dated 2026):
“And” between values parts separate entries of the source, which are not always exact repeats. Equal values may be shown once. Read-outs that look alike come from different tables or passages of the source.

Test: Pharmacokinetics after repeated oral administration of 35 μg/kg of fluralaner in dogs after feeding
Assay type: in vivo, beagle dogs
Details: oral 35 μg/kg Days 0-3, dogs; for concentration at 480 h / concentration at 576 h / concentration at 672 h / AUC(0-inf) / AUC(0-t) / Cmax / half-life: beagle, dog, plasma, po; for concentration at 480 h / concentration at 576 h / concentration at 672 h: 35 μg/kg; for AUC(0-inf) / AUC(0-t) / Cmax / half-life: 35 ug/kg
Method: The first objective of the study was to obtain the pharmacokinetic parameters after repeated oral administration of 35 μg/kg of fluralaner in dogs, 30 to 35 minutes after feeding.
The second objective was to investigate the pharmacodynamics between the fluralaner plasmatic dose and the effectiveness against fleas. • IVP: Investigational Veterinary Product, is pure Fluralaner+DMSO (35 μg/kg on Days 0 to 3 (0.35 mL/kg)) • Control product is DMSO (0.35 mL/kg on Days 0 to 3)
On Days 0, 1, 2 and 3, all dogs assigned to group 2 received the Investigational Veterinary Product. On Days 0 to 3 all dogs in group 1 received the control product at a volume equal to the dogs in group 2. Dogs assigned to group 1 received the control product and served as Placebo controls. The quantity of Investigational Veterinary Product and control product administered was calculated according to the dog's individual body weight measured on Day −1.
Blood samples were taken from all dogs prior to Investigational Veterinary Product treatment or control product administration on Day 0 and on Days 1 (+24 hours), 2 (+48 hours), 3 (+72 hours), 4 (+96 hours), 5 (+120 hours), 10 (+240 hours), 15 (+360 hours), 20 (+480 hours), 24 (+576 hours) and Day 28 (+672 hours).
On days of administration of pre-Investigational Veterinary Product or Control Product, dogs were fed (the same dog food) approximately half of their normal daily ration 30 minutes to 35 minutes prior to administration. Food consumed by the time of administration was calculated and recorded. The remainder of their normal daily ration was fed immediately after administration.
The PK parameters of fluralaner were calculated using a non-compartmental approach.
The following rules were applied for the calculation of the PK parameters: • All the plasma concentrations, validated by the bioanalytical laboratory, were used for the PK analysis. • The actual blood sampling times were used throughout. • Concentrations below the Limit of Quantification (LOQ) value were considered as zero from time zero (pre-dose) up to the time at which the first quantifiable concentration above the LOQ value was observed. Concentrations below the LOQ value between two quantifiable concentrations were considered as missing. Trailing concentrations below the LOQ value were not used in calculations.
Cmax the observed maximum concentration in plasma measured after dosing.
tmax the time at which Cmax was apparent.
λz the terminal rate constant (λz) was estimated by log-linear regression analysis on data points visually assessed, to be on the terminal log-linear phase. For the slope of the terminal elimination phase to be accepted as reliable, the following criteria were used: • the terminal data points were apparently randomly distributed about a single straight line (on visual inspection), • a minimum of three data points, including the last measured data point and excluding Cmax, were available for the regression.
t1/2 the terminal plasma half-life (t1/2) was calculated according to the following equation: […]
AUC0-t the area under the concentration-time curve from time zero (pre-dose) to the time of last quantifiable concentration (t) was calculated using a linear trapezoidal method.
[AUC0-∞=AUC0-t+(Ct/λz)], where Ct was the observed concentration of drug for the last sample on the PK profile in which the drug was detected, and λz was as defined above.
The extrapolated area under the curve, expressed as a percentage of the total area, AUCinf, was also calculated as: Area Extra (%)=(AUC0-∞−AUC0-t)/AUC0-∞*100%.

[1] = n=6, read-out: fluralaner concentration levels, Mean
[2] = n=6, read-out: fluralaner concentration levels, Median
[3] = n=6, read-out: fluralaner concentration levels, Minimum
[4] = read-out: fluralaner concentration levels, individual animal
[5] = n=6, read-out: fluralaner concentration levels, GeoMean
[6] = n=6, read-out: fluralaner concentration levels, Maximum

With Cc1cc(C2=NOC(c3cc(Cl)cc(Cl)c3)(C(F)(F)F)C2)ccc1C(=O)NCC(=O)NCC(F)(F)F (stereo not drawn) [fluralaner, Fluralaner] the concentration at 480 h [1] was 22.4 ng/mL, the concentration at 480 h [2] was 23.2 ng/mL and the concentration at 480 h [3] was 17.1 ng/mL. The concentration at 480 h [4] was 25.3 ng/mL, the concentration at 576 h [5] was 17.1 ng/mL and the concentration at 576 h [6] was 22.2 ng/mL. It also gave a concentration at 576 h [1] of 17.4 ng/mL, a concentration at 576 h [2] of 16.1 ng/mL and a concentration at 576 h [3] of 13.3 ng/mL. It also gave a concentration at 576 h [4] of 17.3 ng/mL, a concentration at 672 h [5] of 12.5 ng/mL and a concentration at 672 h [6] of 16 ng/mL. It also gave a concentration at 672 h [1] of 12.8 ng/mL, a concentration at 672 h [2] of 12.8 ng/mL and a concentration at 672 h [3] of 9.1 ng/mL. For the same molecule, the concentration at 672 h [4] was 16 ng/mL, the AUC(0-inf) (n=6, read-out: AUC 0-inf, GeoMean) was 27900 ng·h/mL and the AUC(0-inf) (n=6, read-out: AUC 0-inf, Mean) was 28100 ng·h/mL. For the same molecule, the AUC(0-inf) (n=6, read-out: AUC 0-inf, Median) was 28300 ng·h/mL, the AUC(0-t) (n=6, read-out: AUC 0-t, GeoMean) was 23900 ng·h/mL and the AUC(0-t) (n=6, read-out: AUC 0-t, Mean) was 23900 ng·h/mL. For the same molecule, the AUC(0-t) (n=6, read-out: AUC 0-t, Median) was 24000 ng·h/mL, the Cmax (n=6, read-out: Cmax, GeoMean) was 84 ng/mL and the Cmax (n=6, read-out: Cmax, Mean) was 84.4 ng/mL. The Cmax (n=6, read-out: Cmax, Median) was 87 ng/mL, the half-life (n=6, read-out: t½ (terminal half-life), Mean (converted)) was 217 h and the half-life (n=6, read-out: t½, GeoMean (converted)) was 214 h. It also gave a half-life (n=6, read-out: t½, Median (converted)) of 233 h, an AUC(0-inf) (read-out: AUC 0-inf, individual animal) of 31000 ng·h/mL and an AUC(0-t) (read-out: AUC 0-t, individual animal) of 25000 ng·h/mL. The Cmax (read-out: Cmax, individual animal) was 71.8 ng/mL, the Cmax (read-out: maximum concentration (Cmax), range) was 71.8 to 92.4 ng/mL and the half-life (read-out: terminal half-life, range) was 155 to 261 h. For the same molecule, the half-life (read-out: t½, individual animal (converted)) was 261 h, the “AUC 0-inf, individual animal” value was 26895 ng·h/mL and 31726 ng·h/mL and 29670 ng·h/mL and 23684 ng·h/mL and 25369 ng·h/mL and the “AUC 0-t, individual animal” value was 23395 ng·h/mL and 26334 ng·h/mL and 24538 ng·h/mL and 21644 ng·h/mL and 22612 ng·h/mL. The “AUC extrap, individual animal” value was 19.5% and 13.0% and 17.0% and 17.3% and 8.6% and 10.9%, the “Cmax, individual animal” value was 92.4 ng/mL and 89.4 ng/mL and 76.6 ng/mL and 91.6 ng/mL and 84.5 ng/mL and the “Lambda z, individual animal” value was 0.0027 and 0.0030 (2×) and 0.0029 and 0.0045 and 0.0037. For the same molecule, the “t½, individual animal” value was 233.3 h and 233.6 h and 235.6 h and 155.2 h and 185.6 h, the “AUC 0-inf, Maximum” value (n=6) was 31726 ng·h/mL and the “AUC 0-inf, Minimum” value (n=6) was 23684 ng·h/mL. For the same molecule, the “AUC 0-t, Maximum” value (n=6) was 26334 ng·h/mL, the “AUC 0-t, Minimum” value (n=6) was 21644 ng·h/mL and the “AUC extrap, GeoMean” value (n=6) was 13.82%. For the same molecule, the “AUC extrap, Maximum” value (n=6) was 19.5%, the “AUC extrap, Mean” value (n=6) was 14.38% and the “AUC extrap, Median” value (n=6) was 15.00%. The “AUC extrap, Minimum” value (n=6) was 8.6%, the “Cmax, Maximum” value (n=6) was 92.4 ng/mL and the Lambda z, GeoMean (n=6) was 0.00324 h⁻¹. For the same molecule, the “Lambda z, Maximum” value (n=6) was 0.0045, the Lambda z, Mean (n=6) was 0.00329 h⁻¹ and the Lambda z, Median (n=6) was 0.00297 h⁻¹. For the same molecule, the Lambda z, Minimum (n=6) was 0.0027 h⁻¹, the “t½, Maximum” value (n=6) was 261.4 h and the “t½, Minimum” value (n=6) was 155.2 h.
